{"source": "patent US20210222168A1", "about": "“METHODS FOR REACTIVATING GENES ON THE INACTIVE X CHROMOSOME” (THE GENERAL HOSPITAL CORPORATION, priority 2017, published 2021)", "key": {"[1]": {"tested_on": "Mecp2:Luciferase knock-in reporter on the Xi", "test": "Luciferase assay in Xi-Mecp2-Luc MEFs", "assay_type": "cell-based, mouse", "details": "for Xi-Mecp2 upregulation / reactivation in combination with the Xist ASO: 20 nM Xist ASO + small molecule inhibitor (EPZ6438 1 uM, VX680 1 uM, Aza 0.5 uM); for upregulation of MECP2 by other Xist gapmers: 20 nM ASO + 0.5 μM Aza (FIG. 7B-D)", "experimental": "(§1) Mecp2-Luc fibroblast cell lines were a generous gift from Dr. Bedalov. The clonal hybrid (cast/mus) cell line (EY.T4) was previously developed in the lab (Yildirim E et al. (2011) X-chromosome hyperactivation in mammals via nonlinear relationships between chromatin states and transcription. Nat Struct Mol Biol 19:56-61). Passage number was kept below 25, no further verification of cell line identity was performed. They were maintained in DMEM-glutamax (Gibco), supplemented with fetal bovine serum (FBS, 10%), non-essential amino acids (1×, Gibco), HEPES buffer (25 mM, Gibco), penicillin/streptomycin (1×, Gibco) and 2-Mercaptoethanol (Sigma). Transfection was performed with 20 nM ASO assisted by Lipofectamine LTX with Plus reagent (Thermo Fisher).\nXa-Mecp2-Luc clone cell line was used in parallel for providing a scaling magnitude for normalizing Xi-driven luciferase signals, Cells were grown in a 12 well plate, trypsinized, counted, washed with PBS and dispensed in 20 ul of 1× cell culture lysis reagent (Promega). The mixture was vortexed and incubated for 5 min and then transferred to a zebra 96 well plate. The plate was read using a Perkin Elmer MicroBeta2 LumiJET that automatically adds 100 μl of Luciferase Assay Reagent (Promega) 2 sec before measuring the produced light for 10 sec. The corrected counts per second where divided by the number of cells for generating a luciferase-reactivation score per cell. For the initiating screen ASOs were used at 20 nM (transfected with lipofectamine) in combination with 0.5 uM Aza for 3 days. The reverse screen used 20 nM Xist ASO (transfected with lipofectamine) in combination with the small molecule inhibitors at different concentrations (see Table S-II) for 3 days.\nWe asked whether an ASO could also be developed for Xi-reactivation. We screened a small ASO library against various targets of potential interest, including Xist RNA and an antisense transcript to Mecp2 (Mecp2-as) (FIG. 1A, FIG. 6, Table S-I). In designing the ASOs, we chose phosporothioate backbone and locked nucleic acid (LNA™) chemistry (Wahlestedt C et al. Potent and nontoxic antisense oligonucleotides containing locked nucleic acids. Proc Natl Acad Sci USA. 2000; 97:5633-5638) for its in vivo and in vitro stability, and increased affinity and selectivity for RNA targets. All were designed as gapmers, with unmodified deoxyribonucleosides in the center flanked by 5′ and 3′ terminal locked nucleosides, to direct RNAse-H-mediated cleavage of the target transcript. […] The luciferase reporter provides a highly sensitive enzymatic detection method with a large dynamic range. […] Epigenetics Chromatin. […] Science. 2015; 349: aab2276-12), we examined the efficacy of each ASO in the presence of 0.5 uM decitabine (“Aza”; 5-aza-2′-deoxycytidine) for three days."}, "[2]": {"tested_on": "Xi-Mecp2-Luc MEF cells", "assay_type": "cell-based", "experimental": "as §1\nImaging was done with a Nikon Eclipse TE2000-E equipped with a HamamatsuCCD camera. Image analysis was done with OpenLAB software (Agilent)."}, "[3]": {"tested_on": "X-linked gene expression relative to autosomal expression", "test": "Aza three pulse treatment, transcriptomic analysis of brain and liver", "assay_type": "in vivo, mouse", "description": "All libraries were sequenced with Illumina HiSeq, generating 28-54 millions paired-end 50 nucleotide reads per sample. RNA-seq reads were aligned allele-specifically to 129S1/SvJm (mus) and CAST/Eih (cas) genome using TopHat2 (Kim D, et al. (2013) TopHat2: Accurate alignment of transcriptomes in the presence of insertions, deletions and gene fusions. Genome Biol 14:R36). After removal of PCR duplicates, all unique reads mapped to the exons of each gene were quantified by Homer (Heinz S, et al. (2010) Simple combinations of lineage-determining transcription factors prime cis-regulatory elements required for macrophage and B cell identities. Mol Cell 38:576-589). […] To compare the fold change of autosomal and X-linked genes, only genes with FPKM≥1 were considered (Yang L, Kirby J E, Sunwoo H, Lee J T (2016) Female mice lacking Xist RNA show partial dosage compensation and survive to term. Genes Dev 30:1747-1760). […] For allele-specific analysis, we defined % mus as the percentage of mus-specific exonic reads in all allele-specific (mus-specific+cas-specific) exonic reads of each transcript. For classification of X-linked genes, we defined expressed genes as genes having non-zero FPKM in all samples. Allele-assessable genes were defined as active genes that have more than 12 allele-specific reads in all samples (Pinter S F and Colognori D (2015) Allelic imbalance is a prevalent and tissue-specific feature of the mouse transcriptome. Genetics 200:537-549). It has been described that a small fraction of genes overlap with incorrectly annotated SNPs and produce unexpected allelic skewing (Pinter S F and Colognori D (2015) Allelic imbalance is a prevalent and tissue-specific feature of the mouse transcriptome. Genetics 200:537-549; Calabrese J M et al. (2012) Site-specific silencing of regulatory elements as a mechanism of X inactivation. Cell 151:951-963). These genes were identified by analyzing a published RNA-seq dataset of tail-tip fibroblasts (TTF) from pure Mus castaneous background. […]"}, "[4]": {"test": "Aza three pulse treatment, long-term health, lifespan and body weight", "experimental": "Aza was administered to the Xist2lox, Nestin-Cre F2 generation, by IP injection at 5 weeks old. Three injections 100 ul per 10 g of 0.033 mg/ml in sterile saline (or just sterile saline as control) were given over the course of a week (each injection separated by 2 days). Both Xist2lox/2lox and Xist Δ/Δ were injected and were randomly assigned to the treatment group. No specific randomization protocol was followed. RNA from the brain and liver were harvested (as described before) at 7 weeks of age (2 weeks after the first injection)."}, "[5]": {"tested_on": "Xi-Mecp2-Luc MEF cells", "details": "stated in parentheses only; target and source not given; cited from earlier work"}, "[6]": {"details": "cited from earlier work"}}, "note": "Entries after “also recorded” stand apart in the source; their conditions may differ."}
{"compound": "Nc1ncn([C@H]2C[C@H](O)[C@@H](CO)O2)c(=O)n1", "note": "[Aza, 5-aza-2′-deoxycytidine]", "values": [{"measurement": "Mecp2:luciferase upregulation, single treatments compared with the combination", "setting": "[1]; 5 days", "result": "remained significantly lower"}, {"measurement": "cell death at higher Aza concentrations", "setting": "[2]; 1.0, 2.5 uM Aza, 3-day treatment", "result": "increased cell death"}, {"measurement": "tolerable Aza concentrations in cell culture", "setting": "[2]; FIG. 2C", "result": 0.5, "unit": "µM"}, {"measurement": "X- and autosomal gene expression in liver", "setting": "[3]; three IP Aza pulses over one week at 5 weeks of age, harvested two weeks later, liver (Xist not deleted)", "result": "remained balanced"}, {"measurement": "X-linked gene expression relative to autosomal expression in XistΔ/Δ brain", "setting": "[3]; three IP Aza pulses over one week combined with Xist deletion, brain two weeks later", "result": "highly significant positive changes in X-linked gene expression relative to autosomal expression; also recorded: X-upregulation evident in the brain two weeks later; also recorded: sufficient to induce Xi reactivation after two weeks in the brain"}, {"measurement": "X-to-autosomal gene expression in Xist2lox/2lox (wild-type) brain", "setting": "[3]; three IP Aza pulses over one week, brain two weeks later", "result": "did not result in X-to-autosomal gene imbalance"}, {"measurement": "survival", "setting": "[4]; after short-term Aza pulse treatment", "result": "all mice advanced to 1-2 year of age"}, {"measurement": "body weight, Aza versus saline treatment groups", "setting": "[4]; mouse, in vivo", "result": "did not introduce significant differences"}, {"measurement": "health and lifespan", "setting": "[4]; mouse, in vivo", "result": "no measurable differences in health and lifespan"}, {"measurement": "IC50", "setting": "[5]", "result": 500, "unit": "nM"}, {"measurement": "blood-brain-barrier crossing", "setting": "[6]; cited: Chabot et al., rabbits and dogs", "result": "can cross the blood-brain-barrier"}, {"measurement": "half-life (t1/2) in plasma", "setting": "[6]; plasma", "result": "< 1", "unit": "h"}]}
{"compound": "CCN(c1cc(-c2ccc(CN3CCOCC3)cc2)cc(C(=O)NCc2c(C)cc(C)[nH]c2=O)c1C)C1CCOCC1", "note": "[EPZ6438, N-((4,6-dimethyl-2-oxo-1,2-dihydropyridin-3-yl)methyl)-5-(ethyl(tetrahyd-ro-2H-pyran-4-yl)amino)-4-methyl-4′-(morpholinomethyl)-[1,1′-biphenyl]-3-carboxamide]", "values": [{"measurement": "Xi-Mecp2 upregulation / reactivation in combination with the Xist ASO", "setting": "[1]; 3 days", "result": "varying degrees of upregulation; also recorded: larger degree of reactivation than previously seen with any other compound"}]}
{"compound": "Cc1cc(Nc2cc(N3CCN(C)CC3)nc(Sc3ccc(NC(=O)C4CC4)cc3)n2)n[nH]1", "note": "[VX680]", "values": [{"measurement": "Xi-Mecp2 upregulation / reactivation in combination with the Xist ASO", "setting": "[1]; 3 days", "result": "varying degrees of upregulation; also recorded: larger degree of reactivation than previously seen with any other compound"}]}
{"compound": "Scr ASO: negative control ASO, scrambled sequence; AACACGTCTATACGC, SEQ ID NO: 1 (all phosphorothioate, sugars by position and methylation of C not given here; LNA gapmer with DNA center and LNA wings)", "values": [{"measurement": "luminescent counts per second (LCPS) / Mecp2:luciferase reactivation, single treatment", "setting": "[1]; 3 days, ASO 20 nM or Aza 0.5 uM alone", "result": "neither the control Scr ASO (20 nM) nor Xist ASO (20 nM gapmer 1) resulted in measurable luminescent counts per second"}]}
{"compound": "Xist ASO 2: LNA gapmer ASO targeting Xist exon 1; AGTAGCTCGGTGGAT, SEQ ID NO: 3 (all phosphorothioate, sugars by position and methylation of C not given here; LNA gapmer with DNA center and LNA wings)", "values": [{"measurement": "upregulation of MECP2 by other Xist gapmers", "setting": "[1]", "result": "found to also upregulate MECP2"}]}
{"compound": "Xist ASO 3: LNA gapmer ASO targeting Xist exon 1; TGAGTCTTGAGGAGAA, SEQ ID NO: 4 (all phosphorothioate, sugars by position and methylation of C not given here; LNA gapmer with DNA center and LNA wings)", "values": [{"measurement": "upregulation of MECP2 by other Xist gapmers", "setting": "[1]", "result": "found to also upregulate MECP2"}]}
